# Paper PMC8333620, “Novel Tl(III) complexes containing pyridine-2,6-dicarboxylate derivatives with selective anticancer activity through inducing mitochondria-mediated apoptosis in A375 cells” (Scientific Reports, 2021)
# Tests used:
# [1] = Cyclic voltammetry of the complexes; type: physicochemical; details: versus Ag/AgCl, KCl 0.1 M, GCE, scan rate 50 V/s
# Source text: The electrochemical behavior of the complexes and also their ligands was studied by the cyclic voltammograms in the potential range of + 1.5 to –1.5 V and a scan rate of 50 Vs^–1. […] Redox couples at E^0ˊ 0.109, –0.051, and 0.244 V were obtained for C1, C2, and C3, respectively. The electrochemical oxidation of all three complexes seems be a one-stage process which includes irreversible couples with EC = –0.363 V, EA = 0.472 V for C1, EC = –0.271 V, EA = 0.220 V for C2 and EC = –0.337 V, EA = 0.581 V for C3. The peaks can be interpreted according to the Tl(III)/Tl(I) redox system for complexes. […] Therefore, redox couples are related to only the metal centers in complexes[27],[28].
# Figure 4 Cyclic voltammogram of complexes c = 4 × 10^–3 mol/dm^3 in H2O medium, KCl (0.1 M) at GCE, scan rate 50 V/s.
# Pyridine-2,6-dicarboxylic acid, 4-hydroxy-pyridine-2,6-dicarboxylic acid, 2-aminobenzimidazole, 4-aminopyridine, and thallium(III) nitrate trihydrate were purchased from the commercial sources and were used as received. The solvents were distilled for all synthetic works. Melting points were obtained on an Electrothermal IA-9100 apparatus. The FT-IR spectra were recorded on a Bruker Vector 22 FT-IR spectrometer using KBr pellets. Electronic spectra were recorded on Specord 210, Analytik Jena spectrophotometer in the range of 200–900 nm at room temperature. The ^1HNMR spectra were obtained from Bruker Ultrashield 400 spectrometer. Microanalyses (C, H, N) were measured with a Perkin-Elmer 2004(II) elemental analyzer. Electrochemical experiments were performed using a µAUTOLAB modular electrochemical system (ECO Chemie, Utrecht, the Netherlands) equipped with a PGSTAT type III module driven by GPES software in conjunction with a conventional three-electrode system an Ag/AgCl/3 M KCl and platinum wire as reference and counter electrode respectively and a GC as the working electrode.
# A375 cells [2] = assay: Cell cycle analysis (PI, flow cytometry), A375; type: cell-based, human; details: A375, IC50 concentrations, 24 h; with respect to untreated control cells
# Experimental: A375 cells were seeded in 6-well plates with 1.5 × 10^6 cells /well and treated with the C1 and C3 at IC50 concentrations for 24 h. Cells were trypsinized, collected, and fixed in ice-cold 75% ethanol at − 20 °C overnight. After centrifugation, the fixed cells were rinsed with ice-cold phosphate-buffered saline (PBS) and resuspended in 0.5 mL of PBS containing 100 μg/mL DNase-free RNase A (Thermo Fisher Scientific Biosciences GmbH, St. Leon-Rot, Germany), 50 μg/mL propidium iodide (PI; Sigma Aldrich) in the dark for 30 min. The distribution of the cells in different phases of the cell cycle was determined using flow cytometry (Attune Nxt, Thermo Fisher Scientific-US) and FlowJo software v10.6.1 (https://www.flowjo.com/solutions/flowjo/downloads) was used to analyze the data. This test was performed as explained on HFF cells treatment to C3 (at the highest concentration)[62].
# A375 cells [3] = assay: Mitochondrial membrane potential assay (JC-1), A375; type: cell-based, human; details: A375, IC50 concentrations, JC-1, 24 h
# Experimental: Mitochondrial membrane potential analysis was determined by fluorescent dye JC-1 staining according to the manufacturer's protocol for the JC-1 assay kit. In brief, 2 mL of A375 cells (1 × 10^5 cells/mL) were treated with IC50 concentrations of C1 and C3 in 6-well plates for […]. Cells were harvested and washed three times with PBS after 24 h of incubation. Then cells were stained with 1 mL of JC-1 stock solution (10 mg/mL). Assays were initiated by incubating A375 cells with JC-1 for 30 min at 37 °C in the dark and detected with a fluorescence microscope. This test was performed as explained on HFF cells treatment to C3 (at the highest concentration).
# [4] = test system: A375 (a human melanoma) cell line; assay: MTT cytotoxicity assay, A375; type: cell-based; details: MTT, 48 h
# Experimental: In this study, A375 (a human melanoma), HT29 (a human colon adenocarcinoma), and HFF (a human foreskin fibroblast) cell lines were provided from the Pasteur Institute (Iran). […] 10 mM stock solutions of compounds were prepared in DMSO and diluted in a fresh medium for use. The final concentration of DMSO never exceeded 0.1% (v/v). […] Then the medium was replaced with the respective medium containing ligands or Tl(III) complexes at different concentrations and incubated for 48 h. 10 μL of MTT was added and the medium was removed after 4 h of incubation. Finally, the violet crystal was solubilized in 100 μL DMSO and the absorbance was measured at 570 nm. IC50 value was measured by the standard method. The evaluations were carried out in triplicate[21],[23].
substance,measurement,setting,value
(4-apyH)[Tl(pydc)(pydcH)2]0.5H2O [C3],formal potential E0',[1]; 4 × 10^–3 mol/dm^3 in H2O,0.244 V
same,EA (anodic peak potential),[1]; H2O,0.581 V
same,EC (cathodic peak potential),[1]; H2O,–0.337 V
same,rise in the cellular population of the G2-M phase,A375 cells [2],21.10%
same,mitochondrial membrane potential (MMP) in A375 cells,A375 cells [3],MMP reduction
same,"Viability inhibition, A375",[4]; concentration not given,69.62%
same,IC50,[4]; read-out: Cytotoxicity (IC50 ± SEM) against A375,7.23 ± 0.93 µM
